Legend:
Format in all cases: biochemical
human CSNK1A1 [1] = target: T1, human CSNK1A1 (Homo sapiens (Human), UniProt P48729); experiment: CSNK1A1 Assay 2 (ADP-Glo, 1 μM ATP); conditions: substrate biotin-Ahx-KRRRAL-pS-VASLPGL, read-out: CSNK1A1 Assay 2 IC50 [mol/l] (median)
Method: CSNK1A1-inhibitory activity of compounds of the present invention in presence of 1 μM adenosine-tri-phosphate (ATP) was quantified employing the CSNK1A1 assay as described in the following paragraphs. In essence, the enzyme activity is measured by quantification of the adenosine-di-phosphate (ADP), which is generated as a co-product of the enzyme reaction, via the “ADP-Glo™ Kinase Assay” kit from the company Promega. This detection system works as follows: In a first step the ATP not consumed in the kinase reaction is quantitatively converted to cAMP employing an adenylate cyclase (“ADP-Glo-reagent”), then the adenylate cyclase is stopped and the ADP generated in the kinase reaction converted to ATP which generates in a luciferase-based reaction a glow-luminescence signal (“Kinase Detection Reagent”). Recombinant fusion protein of N-terminal Glutathion-S-Transferase (GST) and full-length human CSNK1A1, expressed by baculovirus infected insect cells and purified via Glutathion affinity chromatography, was purchased from Life Technologies (product no. PV4174) and used as enzyme. As substrate for the kinase reaction the biotinylated peptide biotin-Ahx-KRRRAL-pS-VASLPGL (C-terminus in amide form) was used which can be purchased e.g. from the company Biosyntan (Berlin-Buch, Germany).
For the assay 50 nl of a 100 fold concentrated solution of the test compound in DMSO was pipetted into a white 1536-well microtiter plate (Greiner Bio-One, Frickenhausen, Germany), 2 μL of a solution of CSNK1A1 in aqueous assay buffer [50 mM HEPES pH 7.5, 10% (v/v) glycerol, 10 mM MgCl2, 50 mM NaCl, 1 mM dithiothreitol, 0.01% (w/v) bovine serum albumin, 0.01% (v/v) Triton X-100] were added and the mixture was incubated for 15 min at 22° C. to allow pre-binding of the test compounds to the enzyme before the start of the kinase reaction. […] The concentration of CSNK1A1 was adjusted depending of the activity of the enzyme lot and was chosen appropriate to have the assay in the linear range, a typical concentrations are about 0.0375 ng/μL. The reaction was stopped by the addition of 2.5 μL of “ADP-Glo-reagent” (1:1.5 fold diluted with water) and the resulting mixture was incubated at 22° C. for 1 h to convert the ATP not consumed in the kinase reaction completely […]. Subsequently 2.5 μL of the “kinase detection reagent” (1.2 fold more concentrated than recommended by the producer) were added, the resulting mixture was incubated at 22° C. for 1 h and then the luminescence measured with a suitable measurement instrument (e.g. Viewlux™ from Perkin-Elmer). The amount of emitted light was taken as a measure for the amount of ADP generated and thereby for the activity of the CSNK1A1.

human CSNK1D = human CSNK1D (Homo sapiens (Human), UniProt P48730); experiment: CSNK1D Assay (ADP-Glo, 1 μM ATP); conditions: read-out: CSNK1D IC50 [mol/l] (median)
human CSNK1D, sequence (P48730 whole entry): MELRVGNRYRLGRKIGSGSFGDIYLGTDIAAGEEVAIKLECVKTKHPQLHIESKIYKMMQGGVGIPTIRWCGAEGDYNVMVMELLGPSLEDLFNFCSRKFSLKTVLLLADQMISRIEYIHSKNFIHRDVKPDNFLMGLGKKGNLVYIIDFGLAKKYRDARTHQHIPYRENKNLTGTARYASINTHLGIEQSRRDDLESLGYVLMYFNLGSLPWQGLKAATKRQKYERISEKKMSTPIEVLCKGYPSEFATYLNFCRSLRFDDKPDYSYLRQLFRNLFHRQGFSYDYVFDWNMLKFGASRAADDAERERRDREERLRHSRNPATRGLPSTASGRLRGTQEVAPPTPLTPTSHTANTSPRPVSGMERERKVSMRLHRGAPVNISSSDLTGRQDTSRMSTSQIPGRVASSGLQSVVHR
Method: CSNK1 D-inhibitory activity of compounds of the present invention in presence of 1 μM adenosine-tri-phosphate (ATP) was quantified employing the CSNK1D assay as described in the following paragraphs. In essence, the enzyme activity is measured by quantification of the adenosine-di-phosphate (ADP), which is generated as a co-product of the enzyme reaction, via the “ADP-Glo™ Kinase Assay” kit from the company Promega. This detection system works as follows: In a first step the ATP not consumed in the kinase reaction is quantitatively converted to cAMP employing an adenylate cyclase (“ADP-Glo-reagent”), then the adenylate cyclase is stopped and the ADP generated in the kinase reaction converted to ATP which generates in a luciferase-based reaction a glow-luminescence signal (“Kinase Detection Reagent”). Recombinant fusion protein of N-terminal Glutathion-S-Transferase (GST) and full-length human CSNK1D, expressed by baculovirus infected insect cells and purified via Glutathion affinity chromatography, was purchased from Life Technologies (product no. PV3665) and used as enzyme. As substrate for the kinase reaction the biotinylated peptide Btn-Ahx-[…] (C-terminus in amide form) was used which can be purchased e.g. from the company Biosyntan (Berlin-Buch, Germany).
For the assay 50 nl of a 100 fold concentrated solution of the test compound in DMSO was pipetted into a white 1536-well microtiter plate (Greiner Bio-One, Frickenhausen, Germany), 2 μL of a solution of CSNK1D in aqueous assay buffer [50 mM HEPES pH 7.5, 10% (v/v) glycerol, 10 mM MgCl2, 50 mM NaCl, 1 mM dithiothreitol, 0.01% (w/v) bovine serum albumin, 0.01% (v/v) Triton X-100] were added and the mixture was incubated for 15 min at 22° C. to allow pre-binding of the test compounds to the enzyme before the start of the kinase reaction. […] The concentration of CSNK1 D was adjusted depending of the activity of the enzyme lot and was chosen appropriate to have the assay in the linear range, a typical concentration is about 0.5 ng/μL. The reaction was stopped by the addition of 2.5 μL of “ADP-Glo-reagent” (1:1.5 fold diluted with water) and the resulting mixture was incubated at 22° C. for 1 h to convert the ATP not consumed in the kinase reaction completely […]. Subsequently 2.5 μL of the “kinase detection reagent” (1.2 fold more concentrated than recommended by the producer) were added, the resulting mixture was incubated at 22° C. for 1 h and then the luminescence measured with a suitable measurement instrument (e.g. Viewlux™ from Perkin-Elmer). The amount of emitted light was taken as a measure for the amount of ADP generated and thereby for the activity of the CSNK1D.

human CSNK1A1 [2] = target: T1, human CSNK1A1; experiment: CSNK1A1 High ATP Assay (ADP-Glo, 1 mM ATP); conditions: read-out: CSNK1A1 high ATP assay IC50 [mol/l] (median)
Method: CSNK1A1-inhibitory activity of compounds of the present invention in presence of 1 mM adenosine-tri-phosphate (ATP) was quantified employing the CSNK1A1-high-ATP-assay as described in the following paragraphs. In essence, the enzyme activity is measured by quantification of the adenosine-di-phosphate (ADP), which is generated as a co-product of the enzyme reaction, via the “ADP-Glo™ Kinase Assay” kit from the company Promega. This detection system works as follows: In a first step the ATP not consumed in the kinase reaction is quantitatively converted to cAMP employing an adenylate cyclase (“ADP-Glo-reagent”), then the adenylate cyclase is stopped and the ADP generated in the kinase reaction converted to ATP which generates in a luciferase-based reaction a glow-luminescence signal (“Kinase Detection Reagent”).
Recombinant fusion protein of N-terminal Glutathion-S-Transferase (GST) and full-length human CSNK1A1, expressed by baculovirus infected insect cells and purified via Glutathion affinity chromatography, was purchased from Life Technologies (product no. PV4174) and used as enzyme. As substrate for the kinase reaction the biotinylated peptide biotin-Ahx-KRRRAL-pS-VASLPGL (C-terminus in amide form) was used which can be purchased e.g. from the company Biosyntan (Berlin-Buch, Germany).
For the assay 50 nl of a 100 fold concentrated solution of the test compound in DMSO was pipetted into a white low volume 384-well microtiter plate (Greiner Bio-One, Frickenhausen, Germany), 2 μL of a solution of CSNK1A1 in aqueous assay buffer [50 mM HEPES pH 7.5, 10% (v/v) glycerol, 10 mM MgCl2, 50 mM NaCl, 1 mM dithiothreitol, 0.01% (w/v) bovine serum albumin, 0.01% (v/v) Triton X-100] were added and the mixture was incubated for 15 min at 22° C. to allow pre-binding of the test compounds to the enzyme before the start of the kinase reaction. […] The concentration of CSNK1A1 was adjusted depending of the activity of the enzyme lot and was chosen appropriate to have the assay in the linear range, a typical concentration is about 0.4 ng/μL. The reaction was stopped by the addition of 2.5 μL of “ADP-Glo-reagent” (1:1.5 fold diluted with water) and the resulting mixture was incubated at 22° C. for 1 h to convert the ATP not consumed in the kinase reaction completely […]. Subsequently 2.5 μL of the “kinase detection reagent” (1.2 fold more concentrated than recommended by the producer) were added, the resulting mixture was incubated at 22° C. for 1 h and then the luminescence measured with a suitable measurement instrument (e.g. Viewlux™ from Perkin-Elmer). The amount of emitted light was taken as a measure for the amount of ADP generated and thereby for the activity of the CSNK1A1.

[3] = target: wild-type Epidermal Growth Factor Receptor (EGFR) (Homo sapiens (Human), UniProt P00533); experiment: WT-EGFR Kinase Assay (TR-FRET, 2 mM ATP); conditions: EGFR Wildtyp- 2 mM ATP IC50 [mol/l] (median)
wild-type Epidermal Growth Factor Receptor (EGFR), sequence (P00533 669-1210): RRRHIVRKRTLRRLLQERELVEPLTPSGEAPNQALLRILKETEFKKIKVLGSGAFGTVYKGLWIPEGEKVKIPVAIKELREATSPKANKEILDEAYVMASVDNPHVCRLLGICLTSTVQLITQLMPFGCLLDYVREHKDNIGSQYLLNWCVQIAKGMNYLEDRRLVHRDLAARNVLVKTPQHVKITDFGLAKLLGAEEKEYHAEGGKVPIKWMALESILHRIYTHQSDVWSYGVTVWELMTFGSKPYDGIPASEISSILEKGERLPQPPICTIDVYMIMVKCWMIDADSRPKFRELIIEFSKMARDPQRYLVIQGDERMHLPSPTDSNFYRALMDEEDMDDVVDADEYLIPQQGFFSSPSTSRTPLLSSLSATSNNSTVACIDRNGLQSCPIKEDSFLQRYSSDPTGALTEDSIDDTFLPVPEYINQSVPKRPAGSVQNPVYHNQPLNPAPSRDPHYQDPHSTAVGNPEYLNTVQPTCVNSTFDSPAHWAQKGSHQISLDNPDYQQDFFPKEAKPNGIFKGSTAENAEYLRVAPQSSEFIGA

T1 sequence (P48729 whole entry): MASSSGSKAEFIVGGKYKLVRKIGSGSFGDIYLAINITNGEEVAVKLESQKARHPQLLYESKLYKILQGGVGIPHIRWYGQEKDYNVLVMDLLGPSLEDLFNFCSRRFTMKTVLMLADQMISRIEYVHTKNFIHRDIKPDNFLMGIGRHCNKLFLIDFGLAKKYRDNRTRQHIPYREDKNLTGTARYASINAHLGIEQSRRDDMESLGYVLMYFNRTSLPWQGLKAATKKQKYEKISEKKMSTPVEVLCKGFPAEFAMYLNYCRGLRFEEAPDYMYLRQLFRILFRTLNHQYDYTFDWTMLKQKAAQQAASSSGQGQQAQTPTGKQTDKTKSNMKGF

| SMILES | IC50 (human CSNK1A1 [1]) | IC50 (human CSNK1D) | IC50 (human CSNK1A1 [2]) | IC50 [3] |
| --- | --- | --- | --- | --- |
| O=C(Cc1ccc(F)cc1)Nc1cc(-c2[nH]c3c(c2Nc2ccccc2)C(=O)NC(C(F)(F)F)C3)ccn1 (racemic) [Example 43, N-{4-[3-anilino-4-oxo-6-(trifluoromethyl)-4,5,6,7-tetrahydro-1H-pyrrolo[3,2-c]pyridin-2-yl]pyridin-2-yl}-2-(4-fluorophenyl)acetamide] | 0.00352 µM | 0.00712 µM | 0.0675 µM | 2 µM |
| CN1C(=O)c2c([nH]c(-c3ccnc(NC(=O)C(CC(F)F)c4ccc(F)cc4)c3)c2Nc2ccccc2F)CC1(C)C (racemic) [Example 45, 4,4-difluoro-N-{4-[3-(2-fluoroanilino)-5,6,6-trimethyl-4-oxo-4,5,6,7-tetrahydro-1H-pyrrolo[3,2-c]pyridin-2-yl]pyridin-2-yl}-2-(4-fluorophenyl)butanamide] | 0.0163 µM | 0.0132 µM | 0.273 µM | > 20 µM |
| CC1(C)Cc2[nH]c(-c3ccnc(NC(=O)C(CC(F)F)c4ccc(F)cc4)c3)c(Nc3ccccc3)c2C(=O)N1 (racemic) [Example 48, N-[4-(3-anilino-6,6-dimethyl-4-oxo-4,5,6,7-tetrahydro-1H-pyrrolo[3,2-c]pyridin-2-yl)pyridin-2-yl]-4,4-difluoro-2-(4-fluorophenyl)butanamide] | 0.00769 µM | 0.0134 µM | 0.037 µM | 14.5 µM |
| O=C1NC2(CCC2)Cc2[nH]c(-c3ccnc(NC(=O)C(CC(F)F)c4ccc(F)cc4)c3)c(Nc3ccccc3)c21 (racemic) [Example 54, N-[4-(3′-anilino-4′-oxo-1′,4′,5′,7′-tetrahydrospiro[cyclobutane-1,6′-pyrrolo[3,2-c]pyridin]-2′-yl)pyridin-2-yl]-4,4-difluoro-2-(4-fluorophenyl)butanamide] | 0.00462 µM | 0.0055 µM | 0.0146 µM | > 20 µM |
| CN(C)CCCC(C(=O)Nc1cc(-c2[nH]c3c(c2Nc2ccccc2)C(=O)N(C)CC3)ccn1)c1ccccc1 (racemic) [Example 58, N-[4-(3-anilino-5-methyl-4-oxo-4,5,6,7-tetrahydro-1H-pyrrolo[3,2-c]pyridin-2-yl)pyridin-2-yl]-5-(dimethylamino)-2-phenylpentanamide] | 0.0124 µM | 0.0406 µM | 1.2 µM | > 20 µM |
| CN1CCc2[nH]c(-c3ccnc(NC(=O)C(CC(F)F)c4ccc(F)cc4)c3)c(Nc3ccccc3)c2C1=O (racemic) [Example 61, N-[4-(3-anilino-5-methyl-4-oxo-4,5,6,7-tetrahydro-1H-pyrrolo[3,2-c]pyridin-2-yl)pyridin-2-yl]-4,4-difluoro-2-(4-fluorophenyl)butanamide] | 0.00511 µM | 0.00768 µM | 0.0219 µM | 8.02 µM |
| CC(C(=O)Nc1cc(-c2[nH]c3c(c2Nc2ccccc2)C(=O)N(C)CC3)ccn1)c1ccncc1 (racemic) [Example 72, N-[4-(3-anilino-5-methyl-4-oxo-4,5,6,7-tetrahydro-1H-pyrrolo[3,2-c]pyridin-2-yl)pyridin-2-yl]-2-(pyridin-4-yl)propanamide] | 0.00397 µM | 0.00609 µM | 0.0664 µM | 7.59 µM |
| CCC(C(=O)Nc1cc(-c2[nH]c3c(c2Nc2ccccc2)C(=O)N(C)CC3)ccn1)c1ccc(F)cc1 (racemic) [Example 75, N-[4-(3-anilino-5-methyl-4-oxo-4,5,6,7-tetrahydro-1H-pyrrolo[3,2-c]pyridin-2-yl)pyridin-2-yl]-2-(4-fluorophenyl)butanamide] | 0.00549 µM | 0.00828 µM | 0.164 µM | > 20 µM |
| CC(C(=O)Nc1cc(-c2[nH]c3c(c2Nc2ccccc2)C(=O)N(C)CC3)ccn1)c1ccc(Cl)cc1 (racemic) [Example 79, N-[4-(3-anilino-5-methyl-4-oxo-4,5,6,7-tetrahydro-1H-pyrrolo[3,2-c]pyridin-2-yl)pyridin-2-yl]-2-(4-chlorophenyl)propanamide] | 0.00893 µM | 0.0195 µM | 0.337 µM | > 20 µM |
| CC1Cc2[nH]c(-c3ccnc(NC(=O)Cc4ccc(F)cc4)c3)c(Nc3ccccc3)c2C(=O)N1C (racemic) [Example 88, N-{4-[3-anilino-5,6-dimethyl-4-oxo-4,5,6,7-tetrahydro-1H-pyrrolo[3,2-c]pyridin-2-yl]pyridin-2-yl}-2-(4-fluorophenyl)acetamide] | 0.00233 µM | 0.00518 µM | 0.0651 µM | 0.727 µM |

— patent US12227501B2, “3-amino-2-[2-(acylamino)pyridin-4-yl]-1,5,6,7-tetrahydro-4h-pyrrolo[3,2-c]pyridin-4-one as CSNK1 inhibitors” (Bayer Aktiengesellschaft, priority 2019, dated 2025)
